Source: article PMC4951600 (Iranian Journal of Basic Medical Sciences, 2016)

Target: mitochondrial ATP synthase (DNP-stimulated Mg2+-ATPase), rat heart mitochondria (Rattus norvegicus, UniProt P10719+P15999)
Test: phosphate release from ATP
Format: biochemical

Sequence of mitochondrial ATP synthase (DNP-stimulated Mg2+-ATPase), rat heart mitochondria (P10719 47-529): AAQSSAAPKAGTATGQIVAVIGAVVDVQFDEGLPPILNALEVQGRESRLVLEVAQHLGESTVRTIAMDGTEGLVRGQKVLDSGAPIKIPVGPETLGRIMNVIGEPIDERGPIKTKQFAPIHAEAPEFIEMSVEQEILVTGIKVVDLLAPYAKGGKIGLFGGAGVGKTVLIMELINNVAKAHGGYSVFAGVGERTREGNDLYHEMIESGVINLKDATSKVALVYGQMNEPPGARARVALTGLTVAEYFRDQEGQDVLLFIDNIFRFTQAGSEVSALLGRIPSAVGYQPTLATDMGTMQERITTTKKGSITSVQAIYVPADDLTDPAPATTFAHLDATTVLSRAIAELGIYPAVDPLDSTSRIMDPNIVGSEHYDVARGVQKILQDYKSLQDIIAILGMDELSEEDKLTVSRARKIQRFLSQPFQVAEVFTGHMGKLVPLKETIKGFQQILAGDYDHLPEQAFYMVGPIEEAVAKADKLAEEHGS
Sequence of mitochondrial ATP synthase (DNP-stimulated Mg2+-ATPase), rat heart mitochondria (P15999 44-553): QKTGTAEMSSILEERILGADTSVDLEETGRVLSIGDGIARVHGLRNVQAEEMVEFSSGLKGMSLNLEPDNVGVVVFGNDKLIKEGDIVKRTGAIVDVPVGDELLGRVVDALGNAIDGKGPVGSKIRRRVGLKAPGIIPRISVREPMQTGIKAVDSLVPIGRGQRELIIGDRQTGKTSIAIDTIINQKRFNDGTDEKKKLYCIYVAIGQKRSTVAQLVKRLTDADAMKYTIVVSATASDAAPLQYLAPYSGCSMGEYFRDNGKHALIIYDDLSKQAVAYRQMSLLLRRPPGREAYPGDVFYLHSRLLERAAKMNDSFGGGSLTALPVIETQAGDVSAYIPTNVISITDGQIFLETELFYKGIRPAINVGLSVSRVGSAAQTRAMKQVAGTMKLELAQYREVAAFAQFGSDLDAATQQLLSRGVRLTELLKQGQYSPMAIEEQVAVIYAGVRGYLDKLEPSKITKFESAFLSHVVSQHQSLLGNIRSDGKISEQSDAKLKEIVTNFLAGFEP
Sequence of mitochondrial ATP synthase (DNP-stimulated Mg2+-ATPase), rat heart mitochondria (P35435 whole entry partner): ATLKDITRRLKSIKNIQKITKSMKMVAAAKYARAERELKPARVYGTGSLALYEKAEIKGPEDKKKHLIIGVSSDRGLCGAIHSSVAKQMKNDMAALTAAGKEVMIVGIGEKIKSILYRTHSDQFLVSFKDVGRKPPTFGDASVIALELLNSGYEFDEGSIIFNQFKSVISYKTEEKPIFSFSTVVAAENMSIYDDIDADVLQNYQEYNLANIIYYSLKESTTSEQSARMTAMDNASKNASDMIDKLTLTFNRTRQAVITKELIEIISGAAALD
Sequence of mitochondrial ATP synthase (DNP-stimulated Mg2+-ATPase), rat heart mitochondria (P35434 23-168 partner): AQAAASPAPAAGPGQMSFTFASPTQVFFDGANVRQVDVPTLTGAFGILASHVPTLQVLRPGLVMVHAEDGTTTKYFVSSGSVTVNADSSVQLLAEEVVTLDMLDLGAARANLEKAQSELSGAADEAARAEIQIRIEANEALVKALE
Sequence of mitochondrial ATP synthase (DNP-stimulated Mg2+-ATPase), rat heart mitochondria (P29418 2-51 partner): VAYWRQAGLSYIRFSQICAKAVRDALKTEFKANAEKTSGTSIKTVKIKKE
Sequence of mitochondrial ATP synthase (DNP-stimulated Mg2+-ATPase), rat heart mitochondria (Q06647 24-213 partner): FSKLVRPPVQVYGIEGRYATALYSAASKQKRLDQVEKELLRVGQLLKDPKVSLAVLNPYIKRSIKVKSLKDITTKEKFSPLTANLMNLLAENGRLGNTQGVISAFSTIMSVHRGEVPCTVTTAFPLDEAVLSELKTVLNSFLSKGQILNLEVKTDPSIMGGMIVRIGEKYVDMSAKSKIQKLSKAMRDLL

inhibition at 450 µM (read-out: % inhibition at 0.45 mmol/l)	inhibition at 15 µM (read-out: % inhibition at 0.015 mmol/l)	Compound
97.4%	–	C[C@H](CS)C(=O)N1CCC[C@H]1C(=O)O [captopril]
–	33%	COC(=O)C1=C(C)NC(C)=C(C(=O)OC)C1c1ccccc1[N+](=O)[O-] [nifedipine]
